Measured values as given in ChEMBL document CHEMBL1137513, “Synthesis and biological activities of quinazoline derivatives with ortho-phenol-quaternary ammonium salt groups” (Bioorg Med Chem, 2007).
Calls of active or inactive are those of the source. The rule behind the calls is not given here.

How the values were obtained:
[1] = tested on: Escherichia phage T7; test: Inhibition of T7 RNA polymerase transcription at 20 uM after irradiation; type: functional
[2] = tested on: Escherichia coli; test: Induction of pBR322 DNA interstand cross link at 100 uM by agarose gel electrophoresis assay
[3] = tested on: DNA; test: Binding affinity to calf thymus DNA at 2 uM by thermal denaturation study; type: nucleic-acid assay; settings: Bos taurus
[4] = tested on: Escherichia phage T7; test: Inhibition of T7 RNA polymerase transcription at 10 uM after irradiation; type: functional
[5] = tested on: Escherichia phage T7; test: Inhibition of T7 RNA polymerase transcription at 5 uM after irradiation; type: functional
[6] = tested on: Escherichia coli; test: Induction of pBR322 DNA interstand cross link at 1 uM by agarose gel electrophoresis assay
[7] = tested on: Escherichia coli; test: Induction of pBR322 DNA interstand cross link at 5 uM by agarose gel electrophoresis assay
[8] = tested on: Escherichia coli; test: Induction of pBR322 DNA interstand cross link at pH 7.7 by agarose gel electrophoresis assay

Row | Activity [1] | Activity [2] | ΔTm [3] [°C] | Activity [4] | Activity [5] | Activity [6] [%] | Activity [7] [%] | Activity [8] | SMILES
1 | inactive | inactive | 0.5 | – | – | – | – | – | C[N+](C)(C)Cc1cc(CCC(=O)NCCNC(=O)CCc2ccc(O)c(C[N+](C)(C)C)c2)ccc1O
2 | – | – | 5.8 | Active | Active | – | – | – | COc1cc2nc(Cl)nc(Nc3ccc(O)c(C[N+](C)(C)C)c3)c2cc1OC
3 | – | Active | 8.6 | Active | Active | 28 | 46 | Active | COc1cc2nc(Nc3ccc(O)c(C[N+](C)(C)C)c3)nc(Nc3ccc(O)c(C[N+](C)(C)C)c3)c2cc1OC
4 | – | – | 7.4 | Active | Active | – | – | – | COc1cc2nc(Nc3ccc(O)c(C[N+](C)(C)C)c3)nc(N)c2cc1OC
